Data taken from US10941136B2, “Quinazoline derivative or its salt and pharmaceutical composition comprising the same” (YUHAN CORPORATION, priority 2016, dated 2021).

Columns and labels:
Type in all cases: biochemical
[1] = target: T1, PI3Kδ (p110δ/p85α)(h) (Homo sapiens, UniProt O00329); assay: PI3K-HTRF in vitro enzyme assay, PI3Kδ; conditions: enzyme 0.1 μg/ml
T1 construct: purchased Upstate (Millipore Co, Billerica, Mass., USA) #14˜604
Description: (§1) The compounds of the present invention were tested for the activity of phosphatidylinositol 3-kinase delta (PI3K) by using a PI3K enzyme-homogeneous time resolved fluorescence (PI3K-HTRF) kit, which is available under Upstate™ kit (Millipore Co, Billerica, Mass., USA). This kit system measures indirectly the amount of PIP3 produced via PI3K by detecting competitive inhibition of fluorescence complex formation.
(§2) There were used three kinds of buffer solutions, i.e., reaction buffer, stop solution, and detection solution. The reaction buffer was prepared by diluting Reaction Buffer (provided in Update™ kit) with distilled water 4 times and adding DTT to a concentration of 5 mM. The stop solution was prepared by combining STOP A and B Solutions (provided in Update™ kit) in a ratio of 3:1. The detection solution was prepared by combining Detection Solution A, B and C (provided in Update™ kit) in a ratio of 1:1:18. A substrate solution and an ATP solution were prepared by diluting the 1 mM PIP2 (phosphatidyl inositol 4,5 bi-phosphate) stock solution (provided in Update™ kit) and 10 mM ATP (Sigma-aldrich Co., St. Louis, Mo., USA) stock solution with the reaction buffer to concentrations of 20 μM and 40 μM, respectively. An enzyme solution was prepared by diluting PI3Kδ (#14˜604; Upstate™ kit) with the substrate solution to the concentration of 0.2 μg/ml (final reaction concentration: 0.1 μg/ml).
(§3) The test groups were prepared by dissolving each compound in 100% DMSO at 40× the final concentration and then diluting 10-fold with the reaction buffer. 5 μl of each diluted test group solution was transferred to a 384 well low flange white flat bottom microplate (#3572, Corning Life Sciences, Lowell, Mass., USA). We performed centrifuge (1 minute, 1000 rpm) and shaking for 2 minutes after every solution-adding step in this experiment. Next, 10 μl of the enzyme solution was added to each well. A mixed solution of the substrate solution (10 μl) plus 5 μl of the 100% DMSO diluted solution without test compound (i.e., 10% DMSO solution) was used as a negative control. And also, a mixed solution of enzyme solution (10 μl) plus 5 μl of the 100% DMSO diluted solution without test compound (i.e., 10% DMSO solution) was used as a positive control. This plate was pre-incubated for 10 minutes in a 25° C. incubator. After the pre-incubation, the phosphorylation reaction was induced by adding 5 μl of the ATP solution and the plate was incubated for 30 minutes in a 25° C. incubator. This enzyme reaction was stopped by 5 μl of the stop solution and then 5 μl of the detection solution was added thereto. To obtain enough fluorescence responses, the plate was incubated for 2 hours in a 25° C. incubator protected from light.
(§4) The time-resolved fluorescence resonance energy transfer (TR-FRET) rate was measured (emission wavelength: 665 nm, 620 nm, excitation wavelength: 313 nm) by using a Flexstation3 Micro plate reader (Molecular Devices, USA). TR-FRET Rate was calculated based on the Equation 1 and using these TR-FRET Rates, % inhibition rate of each compound was calculated based on the Equation 2. The IC50 values, i.e., the concentration of a test compound that inhibits 50% of PI3Kδ activity in vitro, are generated by Softmax program (Molecular Devices, USA). TR-FRET Rate=(Signal at 665 nm emission wavelength/Signal at 620 nm emission wavelength)×10000 <Equation 1> % Inhibition Rate=[(TR-FRET Rate of the test group−TR-FRET Rate of the positive control group)/(TR-FRET Rate of the negative control group−TR-FRET Rate of the positive control group)]×100 <Equation 2>

[2] = target: T2, PI3Kα (p110α/p85α)(h) (Homo sapiens, UniProt P42336); assay: PI3K-HTRF in vitro enzyme assay, PI3Kα; conditions: enzyme 0.1 μg/ml
T2 construct: purchased Upstate (Millipore Co) #14-602
T2 sequence (P42336 whole entry): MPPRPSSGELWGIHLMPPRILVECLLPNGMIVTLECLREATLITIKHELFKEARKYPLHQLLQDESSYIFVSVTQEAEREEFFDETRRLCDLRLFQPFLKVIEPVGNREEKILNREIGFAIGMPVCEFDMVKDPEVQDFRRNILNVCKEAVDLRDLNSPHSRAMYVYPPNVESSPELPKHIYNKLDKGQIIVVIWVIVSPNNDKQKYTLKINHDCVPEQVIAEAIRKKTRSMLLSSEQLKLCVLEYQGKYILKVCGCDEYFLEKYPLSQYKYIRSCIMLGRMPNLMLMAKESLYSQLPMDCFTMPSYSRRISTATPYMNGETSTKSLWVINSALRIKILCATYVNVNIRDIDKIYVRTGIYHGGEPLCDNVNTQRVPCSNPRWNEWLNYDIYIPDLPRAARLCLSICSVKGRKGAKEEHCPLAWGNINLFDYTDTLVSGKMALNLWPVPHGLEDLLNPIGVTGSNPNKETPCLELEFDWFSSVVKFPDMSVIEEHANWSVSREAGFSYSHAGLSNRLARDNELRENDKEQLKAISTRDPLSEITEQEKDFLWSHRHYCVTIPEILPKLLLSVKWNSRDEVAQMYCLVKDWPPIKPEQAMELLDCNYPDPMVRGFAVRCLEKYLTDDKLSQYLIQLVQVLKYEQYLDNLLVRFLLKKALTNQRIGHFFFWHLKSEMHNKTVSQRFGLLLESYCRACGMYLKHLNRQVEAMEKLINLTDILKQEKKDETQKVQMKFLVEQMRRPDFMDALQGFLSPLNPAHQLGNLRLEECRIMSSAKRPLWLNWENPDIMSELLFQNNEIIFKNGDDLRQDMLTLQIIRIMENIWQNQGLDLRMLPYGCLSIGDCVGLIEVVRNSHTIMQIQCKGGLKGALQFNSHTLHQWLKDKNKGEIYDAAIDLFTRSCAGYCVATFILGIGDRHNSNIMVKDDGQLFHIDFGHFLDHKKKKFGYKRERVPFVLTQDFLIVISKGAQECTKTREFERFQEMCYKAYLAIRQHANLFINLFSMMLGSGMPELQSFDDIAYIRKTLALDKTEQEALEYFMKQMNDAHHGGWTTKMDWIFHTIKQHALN
T2 sequence (P27986 whole entry partner): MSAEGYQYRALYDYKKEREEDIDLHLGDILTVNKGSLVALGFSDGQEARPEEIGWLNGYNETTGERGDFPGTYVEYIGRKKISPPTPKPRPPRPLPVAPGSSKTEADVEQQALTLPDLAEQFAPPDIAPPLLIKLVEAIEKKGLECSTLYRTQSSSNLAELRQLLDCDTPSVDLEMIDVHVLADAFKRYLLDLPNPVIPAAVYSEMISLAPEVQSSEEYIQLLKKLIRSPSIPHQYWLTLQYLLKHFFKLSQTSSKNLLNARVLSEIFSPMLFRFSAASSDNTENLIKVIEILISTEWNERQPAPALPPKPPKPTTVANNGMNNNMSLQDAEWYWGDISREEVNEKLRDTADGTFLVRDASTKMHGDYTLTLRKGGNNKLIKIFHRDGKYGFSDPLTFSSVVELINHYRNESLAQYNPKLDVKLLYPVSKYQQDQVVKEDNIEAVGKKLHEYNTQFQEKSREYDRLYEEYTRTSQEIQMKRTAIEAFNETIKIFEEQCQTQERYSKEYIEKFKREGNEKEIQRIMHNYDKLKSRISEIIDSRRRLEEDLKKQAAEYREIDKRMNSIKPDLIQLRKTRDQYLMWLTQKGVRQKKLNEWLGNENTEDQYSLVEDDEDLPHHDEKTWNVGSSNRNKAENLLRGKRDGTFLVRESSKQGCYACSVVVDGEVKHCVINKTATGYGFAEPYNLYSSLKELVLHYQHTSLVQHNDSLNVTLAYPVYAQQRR
Description: as §1, §2, §3, §4
(§5) The compounds of the present invention were assayed for the activities of PI3K subtypes, i.e., PI3Kα, PI3Kβ and PI3Kγ, using the same procedures as in Experimental Example 1. […]

[3] = target: T3, PI3Kγ (p120γ)(h) (Homo sapiens, UniProt P48736); assay: PI3K-HTRF in vitro enzyme assay, PI3Kγ; conditions: enzyme 0.4 μg/ml
T3 construct: purchased Upstate (Millipore Co) #14-558
T3 sequence (P48736 whole entry): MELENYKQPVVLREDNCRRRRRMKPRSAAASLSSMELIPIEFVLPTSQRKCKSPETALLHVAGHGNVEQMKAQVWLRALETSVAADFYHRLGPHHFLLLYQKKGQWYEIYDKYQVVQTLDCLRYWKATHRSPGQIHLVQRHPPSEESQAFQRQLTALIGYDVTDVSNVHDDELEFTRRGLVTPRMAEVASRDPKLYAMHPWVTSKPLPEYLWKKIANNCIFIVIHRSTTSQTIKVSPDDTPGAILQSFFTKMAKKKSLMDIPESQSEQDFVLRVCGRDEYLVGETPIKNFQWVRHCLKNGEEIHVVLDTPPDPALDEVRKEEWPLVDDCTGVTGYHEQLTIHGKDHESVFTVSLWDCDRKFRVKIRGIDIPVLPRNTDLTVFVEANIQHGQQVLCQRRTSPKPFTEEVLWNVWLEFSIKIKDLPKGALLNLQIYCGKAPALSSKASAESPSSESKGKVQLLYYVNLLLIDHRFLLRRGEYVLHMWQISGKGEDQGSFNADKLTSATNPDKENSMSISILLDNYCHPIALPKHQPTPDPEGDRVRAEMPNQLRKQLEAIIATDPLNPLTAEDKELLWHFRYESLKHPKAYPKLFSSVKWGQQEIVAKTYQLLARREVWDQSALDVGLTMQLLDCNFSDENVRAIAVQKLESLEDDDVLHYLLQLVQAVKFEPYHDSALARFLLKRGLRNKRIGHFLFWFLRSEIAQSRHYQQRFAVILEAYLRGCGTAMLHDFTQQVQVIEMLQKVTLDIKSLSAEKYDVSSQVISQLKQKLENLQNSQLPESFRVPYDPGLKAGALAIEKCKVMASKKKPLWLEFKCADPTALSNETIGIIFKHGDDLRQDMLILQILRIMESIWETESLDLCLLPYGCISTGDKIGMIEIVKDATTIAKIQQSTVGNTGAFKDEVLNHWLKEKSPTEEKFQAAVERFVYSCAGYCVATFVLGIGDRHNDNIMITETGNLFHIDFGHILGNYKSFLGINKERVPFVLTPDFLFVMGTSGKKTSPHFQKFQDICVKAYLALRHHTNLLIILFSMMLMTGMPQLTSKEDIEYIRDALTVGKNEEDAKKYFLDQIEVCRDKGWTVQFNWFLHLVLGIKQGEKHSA
Description: as §1, §2, §3, §4, §5

T1 sequence (O00329 whole entry): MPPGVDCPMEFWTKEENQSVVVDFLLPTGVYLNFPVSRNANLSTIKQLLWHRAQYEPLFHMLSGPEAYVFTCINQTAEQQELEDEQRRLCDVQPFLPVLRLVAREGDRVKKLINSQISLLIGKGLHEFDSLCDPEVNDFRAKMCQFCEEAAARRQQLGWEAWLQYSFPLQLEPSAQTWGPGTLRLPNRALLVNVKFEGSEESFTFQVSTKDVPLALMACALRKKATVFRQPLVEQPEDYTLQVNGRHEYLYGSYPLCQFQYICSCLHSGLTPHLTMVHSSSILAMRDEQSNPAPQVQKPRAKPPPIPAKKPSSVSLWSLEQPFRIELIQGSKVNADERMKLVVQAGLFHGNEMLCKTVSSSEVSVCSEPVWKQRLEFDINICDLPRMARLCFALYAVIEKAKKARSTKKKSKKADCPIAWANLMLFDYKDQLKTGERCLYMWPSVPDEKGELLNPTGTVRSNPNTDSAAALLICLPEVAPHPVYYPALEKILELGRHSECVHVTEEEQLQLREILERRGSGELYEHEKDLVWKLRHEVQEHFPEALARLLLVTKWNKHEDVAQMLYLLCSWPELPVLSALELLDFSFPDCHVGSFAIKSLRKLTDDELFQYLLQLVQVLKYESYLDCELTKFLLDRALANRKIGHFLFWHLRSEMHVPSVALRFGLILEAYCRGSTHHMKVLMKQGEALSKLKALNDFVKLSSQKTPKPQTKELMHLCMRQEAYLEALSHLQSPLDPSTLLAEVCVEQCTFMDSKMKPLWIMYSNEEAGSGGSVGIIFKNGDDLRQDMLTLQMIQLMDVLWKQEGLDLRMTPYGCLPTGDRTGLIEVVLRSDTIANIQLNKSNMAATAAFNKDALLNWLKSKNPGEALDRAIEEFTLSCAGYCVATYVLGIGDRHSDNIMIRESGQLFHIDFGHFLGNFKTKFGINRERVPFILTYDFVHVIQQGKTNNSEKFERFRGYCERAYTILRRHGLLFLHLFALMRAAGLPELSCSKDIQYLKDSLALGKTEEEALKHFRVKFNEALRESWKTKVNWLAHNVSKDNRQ
T1 sequence (P27986 whole entry partner): as the sequence (P27986 whole entry partner) above

SMILES | IC50 [1] [nM] | IC50 [2] [nM] | IC50 [3] [nM]
Cc1ncc(-c2cccc3cc([C@H](C)Nc4ncnc5ccc(C#N)cc45)n(-c4ccccc4)c(=O)c23)cn1 [Example 36, (S)-4-((1-(8-(2-methylpyrimidin-5-yl)-1-oxo-2-phenyl-1,2-dihydroisoquinolin-3-yl)ethyl)amino)quinazoline-6-carbonitrile] | 5 | 730 | 86
CCOc1ncc(-c2cccc3nc([C@@H](Nc4ncnc5ccc(C#N)cc45)C4CC4)n(-c4ccccc4)c(=O)c23)cn1 [Example 16, (S)-4-((cyclopropyl(5-(2-ethoxypyrimidin-5-yl)-4-oxo-3-phenyl-3,4-dihydroquinazolin-2-yl)methyl)amino)quinazoline-6-carbonitrile] | 4 | 1290 | 434
CC[C@H](Nc1ncnc2cccc(F)c12)c1nc2cccc(-c3cnc(C)nc3)c2c(=O)n1-c1ccccc1 [Example 27, (S)-2-(1-((5-fluoroquinazolin-4-yl)amino)propyl)-5-(2-methylpyrimidin-5-yl)-3-phenylquinazolin-4(3H)-one] | 27 | 7260 | 4980
Cc1ncc(-c2cccc3cc([C@@H](Nc4ncnc5cccc(F)c45)C(C)C)n(-c4ccccc4)c(=O)c23)cn1 [Example 47, (S)-3-(1-((5-fluoroquinazolin-4-yl)amino)-2-methylpropyl)-8-(2-methylpyrimidin-5-yl)-2-phenylisoquinolin-1(2H)-one] | 23 |  | > 1000
CC[C@H](Nc1ncnc2ccc(C#N)cc12)c1cc2cccc(-c3cnc(OC)nc3)c2c(=O)n1-c1ccccc1 [Example 40, (S)-4-((1-(8-(2-methoxypyrimidin-5-yl)-1-oxo-2-phenyl-1,2-dihydroisoquinolin-3-yl)propyl)amino)quinazoline-6-carbonitrile] | 2 | 908 | 237
C[C@H](Nc1ncnc2cccc(F)c12)c1cc2cccc(-c3cnc(F)nc3)c2c(=O)n1-c1ccccc1 [Example 44, (S)-8-(2-fluoropyrimidin-5-yl)-3-(1-((5-fluoroquinazolin-4-yl)amino)ethyl)-2-phenylisoquinolin-1(2H)-one] | 18 | 5630 | 2010

Other lines, results leading:

IC50 [1] [nM] | IC50 [2] [nM] | IC50 [3] [nM] | SMILES
19 | 2730 | 1390 | C[C@H](Nc1ncnc2cccc(F)c12)c1nc2cccc(-c3cnc(N)nc3)c2c(=O)n1-c1ccccc1 [Example 23, (S)-5-(2-aminopyrimidin-5-yl)-2-(1-((5-fluoroquinazolin-4-yl)amino)ethyl)-3-phenylquinazolin-4(3H)-one]
19 | 5300 | 2640 | O=c1c2c(-c3cncnc3)cccc2nc([C@@H](Nc2ncnc3cccc(F)c23)C2CC2)n1-c1ccccc1 [Example 30, (S)-2-(cyclopropyl((5-fluoroquinazolin-4-yl)amino)methyl)-3-phenyl-5-(pyrimidin-5-yl)quinazolin-4(3H)-one]
30 |  | 5940 | C[C@H](Nc1ncnc2cccc(F)c12)c1nc2cccc(-c3cncnc3)c2c(=O)n1-c1ccccc1 [Example 22, (S)-2-(1-((5-fluoroquinazolin-4-yl)amino)ethyl)-3-phenyl-5-(pyrimidin-5-yl)quinazolin-4(3H)-one]
17 |  | > 1000 | CC(C)[C@H](Nc1ncnc2cccc(F)c12)c1cc2cccc(-c3cncnc3)c2c(=O)n1-c1ccccc1 [Example 45, (S)-3-(1-((5-fluoroquinazolin-4-yl)amino)-2-methylpropyl)-2-phenyl-8-(pyrimidin-5-yl)isoquinolin-1(2H)-one]
19 |  |  | CC(C)[C@H](Nc1ncnc2cccc(F)c12)c1nc2cccc(-c3cncnc3)c2c(=O)n1-c1ccccc1 [Example 28, (S)-2-(1-((5-fluoroquinazolin-4-yl)amino)-2-methylpropyl)-3-phenyl-5-(pyrimidin-5-yl)quinazolin-4(3H)-one]
